In patent US11766430B2, “Methods of using a phenoxypropylamine compound to treat pain” (Minerva Neurosciences, Inc., priority 2018, dated 2023):
“And” between values parts separate entries of the source, which are not always exact repeats. Identical values can stand only once.

System: peripheral mononeuropathy (Bennett model) in rats
Test: Peripheral mononeuropathy (Bennett model, chronic constriction injury), paw pressure test (Example 3)
Format: in vivo, male Sprague-Dawley rats
Settings: for paw withdrawal threshold, control paw, Mean: n = 10; for Nociceptive threshold, control paw (mean ± s.e.m.): T0 (14 days after surgery, before dosing)
Protocol: The model of Chronic Constriction Injury (CCI) is based on a discrete peripheral nerve injury and can be related to post-traumatic/postsurgical neuropathic pain experienced by patients (Bennett, G. J. and Xie, Y. K., A peripheral mononeuropathy in rat that produces disorders of pain sensation like those seen in man, Pain, 1988(33):87-107). Unilateral peripheral mononeuropathy was induced by loose ligation of the rat the sciatic nerve of the right hindpaw in anaesthetized rats (xylazine 10 mg/kg i.p., ketamine 60 mg/kg i.p.). The common sciatic nerve was exposed at the level of the middle of the thigh by blunt dissection through the biceps femoris. Proximal to the sciatic trifurcation, four ligatures were tied loosely around it with about 1 mm spacing. Great care was taken to tie the ligatures, such that the diameter of the nerve was seen to be just barely constricted.
Fourteen days later, static mechanical hyperalgesia is assessed using the Paw pressure test (Randall, L. O. and Selitto, J. J., A method for measurement of analgesic activity on inflamed tissue, Arch Int Pharmacodyn, 1957(111):409-419). This test requires the application of an increasing pressure on the hind paws between a flat surface and a blunt pointer. This test is usually used with animals with one hindpaw inflamed by an injection or injured by ligation, and one normal hindpaw, to evaluate drugs for analgesic action. The apparatus exerts a steadily increasing force and reaction threshold is determined as the pressure (g) required to elicit paw withdrawal and/or vocalization. Ugo Basile Analgesimeter (Ugo Basile, Italy) was used for the paw pressure test.
Fourteen days after surgery (D0), nociceptive reaction thresholds (vocalization or paw withdrawal) was measured in order to select animals meeting the inclusion criteria: 20 g<paw withdrawal threshold<240 g (baseline).
Fifty (50) male Sprague-Dawley rats (SPF status, Janvier, France), weighing 133-181 grams the day of surgery were used. Rats were housed in a temperature (20-24° C.) and relative humidity (45%-65%) controlled room and acclimated to an artificial day/night cycle of 12 hours light (6:30 a.m. to 6:30 p.m.)/12 hours darkness. Rats had free access to sterilized tap water and were fed ad libitum with pelleted complete diet (reference A04, S.A.F.E.). Animals were housed 4 per cage (cages Type E) and were acclimated for a period of at least 5 days before any testing. Each rat was identified by tail markings. Based on the SPF status of the animal facilities, there is no reason to expect that contaminants were present in the food, water or bedding, at levels capable of interfering with the results of the tests. […]
Vehicle and MIN-117 were intraperitoneally administered at 10 mL/kg. […] Dosing and testing were performed in a random order by a blinded experimenter except for the morphine-treated group.
Thirty minutes after morphine injection, the antihyperalgesic effect of morphine was evaluated using the paw pressure test. For vehicle and MIN-117 administration, the antihyperalgesic effect of the was evaluated after 120 min. using the paw pressure test.
Results were expressed as: • The paw withdrawal threshold (mean±s.e.m.) in grams of contact pressure for each group, calculated from individual paw withdrawal thresholds • The percentage of variation of the paw withdrawal threshold calculated from the mean value of the vehicle-treated group • The percentage of activity of the compound on mechanical hyperalgesia induced by the sciatic nerve ligation, calculated as follows: […]

[1] = CCI rats, MIN-117 1 mg/kg IP group, Baseline (pre-treatment)
[2] = CCI rats, MIN-117 1 mg/kg IP, 120 min
[3] = CCI rats, MIN-117 1 mg/kg IP, 120 min after treatment, hydrochloride, 1 mg/kg
[4] = CCI rats, MIN-117 3 mg/kg IP group, Baseline (pre-treatment)
[5] = CCI rats, MIN-117 3 mg/kg IP, 120 min
[6] = CCI rats, MIN-117 3 mg/kg IP, 120 min after treatment, hydrochloride, 3 mg/kg
[7] = CCI rats, MIN-117 10 mg/kg IP group, Baseline (pre-treatment)
[8] = CCI rats, MIN-117 10 mg/kg IP, 120 min
[9] = CCI rats, MIN-117 10 mg/kg IP, 120 min after treatment, hydrochloride, 10 mg/kg
[10] = CCI, 1 mg/kg IP, T0 (before dosing)
[11] = CCI, 3 mg/kg IP, T0 (before dosing)
[12] = CCI, 10 mg/kg IP, T0 (before dosing)
[13] = CCI rats, Morphine 3 mg/kg IP [sic], 30 min
[14] = CCI rats, Morphine 3 mg/kg IP [sic], 30 min after treatment
[15] = CCI rats, Morphine 3 mg/kg group, Baseline (pre-treatment)
[16] = CCI, 3 mg/kg SC, T0 (before dosing)

Compound: Cc1nnc(-c2cc3c(OC[C@@H](O)CN4CCC(c5ccc(Cl)c(Cl)c5)CC4)cccc3o2)o1.Cl [MIN-117, (2S)-1-(4-(3,4-dichlorophenyl)piperidin-1-yl)-3-((2-(5-methyl-1,3,4-oxadiazol-2-yl)benzofuran-4-yl)oxy)propan-2-ol hydrochloride]
- % variation vs control paw, injured paw [1]: −54%
- % variation vs vehicle treated group, injured paw [1]: −6%
- paw withdrawal threshold, control paw, Mean [1]: 366 g
- % activity on mechanical hyperalgesia, injured paw [2]: 9%
- % variation vs control paw, injured paw [2]: −47%
- % variation vs pre-drug threshold, injured paw [2]: 10%
- % variation vs vehicle treated group, injured paw [2]: 11%
- paw withdrawal threshold, control paw, individual rats [3]: 400 g (2×) and 300 g (2×) and 360 g and 320 g (4×) and 440 g
- paw withdrawal threshold, injured paw, individual rats [3]: 200 g (3×) and 180 g (3×) and 160 g (3×) and 220 g
- paw withdrawal threshold, control paw, Mean (CCI rats, MIN-117 1 mg/kg IP, 120 min after treatment): 348 g
- % variation vs control paw, injured paw [4]: −55%
- % variation vs vehicle treated group, injured paw [4]: −8%
- paw withdrawal threshold, control paw, Mean [4]: 364 g
- % activity on mechanical hyperalgesia, injured paw [5]: 29%
- % variation vs control paw, injured paw [5]: −40%
- % variation vs pre-drug threshold, injured paw [5]: 35%
- % variation vs vehicle treated group, injured paw [5]: 34%
- paw withdrawal threshold, control paw, individual rats [6]: 440 g and 420 g (2×) and 300 g and 360 g (2×) and 340 g (2×) and 460 g and 280 g
- paw withdrawal threshold, injured paw, individual rats [6]: 280 g and 220 g (2×) and 200 g (3×) and 180 g and 240 g (3×)
- paw withdrawal threshold, control paw, Mean (CCI rats, MIN-117 3 mg/kg IP, 120 min after treatment): 372 g
- % variation vs control paw, injured paw [7]: −55%
- % variation vs vehicle treated group, injured paw [7]: −8%
- paw withdrawal threshold, control paw, Mean [7]: 368 g
- % activity on mechanical hyperalgesia, injured paw [8]: 59%
- % variation vs control paw, injured paw [8]: −33%
- % variation vs pre-drug threshold, injured paw [8]: 71%
- % variation vs vehicle treated group, injured paw [8]: 69%
- paw withdrawal threshold, control paw, individual rats [9]: 600 g and 320 g and 440 g (4×) and 400 g and 280 g and 480 g and 360 g
- paw withdrawal threshold, injured paw, individual rats [9]: 440 g and 320 g (2×) and 260 g and 220 g and 240 g (4×) and 280 g
- paw withdrawal threshold, control paw, Mean (CCI rats, MIN-117 10 mg/kg IP, 120 min after treatment): 420 g
- Nociceptive threshold, control paw (mean ± s.e.m.) (CCI, 1 mg/kg IP): 366 ± 16.1 g
- % variation vs control paw, injured paw [10]: −54%
- % variation vs vehicle-treated group, injured paw [10]: −6%
- Nociceptive threshold, injured paw (mean ± s.e.m.) [10]: 168 ± 8.0 g
- % variation vs control paw, injured paw (CCI, 1 mg/kg IP, T0 + 120 min): −47%
- % variation vs pre-drug threshold, injured paw (CCI, 1 mg/kg IP, T0 + 120 min): 10%
- % variation vs vehicle-treated group, injured paw (CCI, 1 mg/kg IP, T0 + 120 min): 11%
- Nociceptive threshold, injured paw (mean ± s.e.m.) (CCI, 1 mg/kg IP, T0 + 120 min): 184 ± 6.5 g
- Effect on nociceptive threshold vs vehicle-treated group (in words) (CCI, 1 mg/kg i.p., 120 min. after treatment): did not induce any significant increase
- Nociceptive threshold, control paw (mean ± s.e.m.) (CCI, 3 mg/kg IP): 364 ± 9.8 g
- % variation vs control paw, injured paw [11]: −55%
- % variation vs vehicle-treated group, injured paw [11]: −8%
- Nociceptive threshold, injured paw (mean ± s.e.m.) [11]: 164 ± 5.8 g
- % variation vs control paw, injured paw (CCI, 3 mg/kg IP, T0 + 120 min): −40%
- % variation vs pre-drug threshold, injured paw (CCI, 3 mg/kg IP, T0 + 120 min): 35%
- % variation vs vehicle-treated group, injured paw (CCI, 3 mg/kg IP, T0 + 120 min): 34%
- Nociceptive threshold, injured paw (mean ± s.e.m.) (CCI, 3 mg/kg IP, T0 + 120 min, hydrochloride, 3 mg/kg): 222 ± 9.2 g
- Effect on nociceptive threshold vs vehicle-treated group (in words) (CCI, 3 mg/kg i.p., after 120 min.): significant increase
- Nociceptive threshold, control paw (mean ± s.e.m.) (CCI, 10 mg/kg IP): 368 ± 16.9 g
- % variation vs control paw, injured paw [12]: −55%
- % variation vs vehicle-treated group, injured paw [12]: −8%
- Nociceptive threshold, injured paw (mean ± s.e.m.) [12]: 164 ± 7.2 g
- % variation vs control paw, injured paw (CCI, 10 mg/kg IP, T0 + 120 min): −33%
- % variation vs pre-drug threshold, injured paw (CCI, 10 mg/kg IP, T0 + 120 min): 71%
- % variation vs vehicle-treated group, injured paw (CCI, 10 mg/kg IP, T0 + 120 min): 69%
- Nociceptive threshold, injured paw (mean ± s.e.m.) (CCI, 10 mg/kg IP, T0 + 120 min, hydrochloride, 10 mg/kg): 280 ± 20.9 g
- Effect on nociceptive threshold vs vehicle-treated group (in words) (CCI, 10 mg/kg i.p., after 120 min.): significant increase

Compound: CN1CC[C@]23c4c5ccc(O)c4O[C@H]2[C@@H](O)C=C[C@H]3[C@H]1C5 [Morphine, reference compound]
- % activity on mechanical hyperalgesia, injured paw [13]: 165%
- % variation vs control paw, injured paw [13]: −23%
- % variation vs pre-drug threshold, injured paw [13]: 159%
- paw withdrawal threshold, control paw, individual rats [14]: 680 g (2×) and 640 g (3×) and 600 g (3×) and 560 g and 660 g
- paw withdrawal threshold, injured paw, individual rats [14]: 680 g and 600 g (2×) and 480 g (2×) and 560 g and 320 g and 500 g and 240 g and 400 g
- paw withdrawal threshold, control paw, Mean [14]: 630 g
- % variation vs control paw, injured paw [15]: −49%
- % variation vs vehicle treated group, injured paw [15]: 6%
- paw withdrawal threshold, control paw, Mean [15]: 372 g
- Nociceptive threshold, control paw (mean ± s.e.m.) (CCI, 3 mg/kg SC): 372 ± 20.7 g
- % variation vs control paw, injured paw [16]: −49%
- % variation vs vehicle-treated group, injured paw [16]: 6%
- Nociceptive threshold, injured paw (mean ± s.e.m.) (CCI, 3 mg/kg SC, T0 (before dosing), 3 mg/kg): 188 ± 10.4 g
- % variation vs control paw, injured paw (CCI, 3 mg/kg SC, T0 + 30 min): −23%
- % variation vs pre-drug threshold, injured paw (CCI, 3 mg/kg SC, T0 + 30 min): 159%
- Nociceptive threshold, injured paw (mean ± s.e.m.) (CCI, 3 mg/kg SC, T0 + 30 min, 3 mg/kg): 486 ± 42.8 g
- Effect on nociceptive threshold vs baseline pre-treatment (in words) (CCI, 3 mg/kg s.c., 30 min. after the administration): pronounced and significant increase
